Where two headings read alike, the source gives them in different places.
Biological target: T1, Full-length glucokinase (beta cell isoform) (Homo sapiens, UniProt P35557)
T1 construct: Full-length glucokinase (beta cell isoform) was His-tagged at N-terminus; His tag (N); made in house
T1 sequence (P35557 1-465): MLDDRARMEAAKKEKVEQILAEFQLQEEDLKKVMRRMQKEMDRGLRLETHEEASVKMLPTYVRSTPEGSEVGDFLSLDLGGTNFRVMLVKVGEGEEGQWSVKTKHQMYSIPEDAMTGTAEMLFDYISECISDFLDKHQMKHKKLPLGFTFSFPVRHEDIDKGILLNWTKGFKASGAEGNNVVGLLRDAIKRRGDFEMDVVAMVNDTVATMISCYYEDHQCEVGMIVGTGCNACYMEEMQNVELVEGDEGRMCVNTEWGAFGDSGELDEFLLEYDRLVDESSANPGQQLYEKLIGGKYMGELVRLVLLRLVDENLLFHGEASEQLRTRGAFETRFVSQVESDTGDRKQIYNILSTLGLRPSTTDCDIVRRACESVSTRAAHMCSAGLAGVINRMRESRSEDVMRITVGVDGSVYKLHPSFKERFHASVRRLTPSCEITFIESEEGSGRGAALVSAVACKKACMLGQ
Assay: Glucokinase biochemical assay (PK/LDH-coupled, NADH depletion at 340 nm): % activation, EC50, % max activation
Details: 5 mM glucose; for activation at 10 µM: read-out: % Activation at 10 uM; for EC50: GK activation, read-out: EC50; for Emax: read-out: % Max Activation
Summary of the method: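 N-terminally His-tagged full-length human beta-cell glucokinase, room temperature, 5 mM glucose, 1 mM ATP, PK/LDH-coupled with 0.7 mM NADH, 1% DMSO final. Initial velocity from the 200–900 s slope of A340 decline. % activation = (Va/Vo−1)×100, measured across compound concentrations.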

[1] = 10 uM compound, % Activation=(Va/Vo−1)×100
[2] = compound at 10 uM, 1 mM ATP, room temperature

| SMILES | activation at 10 µM [1] [%] | EC50 [nM] | Emax (fitted maximum activation) [%] | % Activation at 10 uM [1] [%] | % Max Activation (fitted maximum activation) [%] | activation at 10 µM [2] [%] |
| --- | --- | --- | --- | --- | --- | --- |
| Cc1cc2c(Oc3ccc(S(=O)(=O)N4CCC4)cc3)cc(C(=O)Nc3ccc(Cl)cn3)cc2o1 [Example 300, 4-(4-(Azetidin-1-ylsulfonyl)phenoxy)-N-(5-chloropyridin-2-yl)-2-methyl-benzofuran-6-carboxamide] | 53.4 | 710 | 56 |  |  |  |
| Cc1ccc(NC(=O)c2cc(Oc3ccc(S(C)(=O)=O)cc3)c3cc(C(=O)N4CCC4)oc3c2)nc1 [Example 290, 2-(Azetidin-1-ylcarbonyl)-N-(5-methylpyridin-2-yl)-4-[4-(methylsulfonyl)-phenoxy]-1-benzofuran-6-carboxamide] | 12.8 |  |  |  |  |  |
| Cn1ncc(NC(=O)c2cc(Oc3ccc(C(=O)N4CCC4)nc3)c3c(c2)OC(C)(C)C3)n1 [Example 169, 4-[6-(Azetidine-1-carbonyl)-pyridin-3-yloxy]-2,2-dimethyl-2,3-dihydro-benzofuran-6-carboxylic acid (2-methyl-2H-[1,2,3]triazol-4-yl)-amide] | 125 | 56 | 141 |  |  |  |
| COCC1Cc2c(Oc3ccc(C(=O)N(C)C)cc3)cc(C(=O)Nc3ccn(C)n3)cc2O1 (single isomer, unassigned; (-)) [Example 213, (−)-4-(4-Dimethylcarbamoyl-phenoxy)-2-methoxymethyl-2,3-dihydro-benzofuran-6-carboxylic acid (1-methyl-1H-pyrazol-3-yl)-amide] |  | 890 |  | 83.1 | 113 |  |
| CC(C)N1Cc2c(Oc3ccc(S(C)(=O)=O)cc3)cc(C(=O)Nc3ccn(C)n3)cc2C1=O [Example 384, 2-Isopropyl-N-(1-methyl-1H-pyrazol-3-yl)-7-(4-(methylsulfonyl)-phenoxy)-3-oxoisoindoline-5-carboxamide] |  |  |  |  |  | 33.2 |
| COc1cnc(NC(=O)c2cc(Oc3ccc(C(=O)N(C)C)nc3)c3cc(C)oc3c2)cn1 [Example 279, 5-(6-((5-Methoxypyrazin-2-yl)carbamoyl)-2-methylbenzofuran-4-yloxy)-N,N-dimethylpicolinamide] | 84.3 | 430 | 105 |  |  |  |
| Cn1ccc(NC(=O)c2cc(OCc3ccccc3)c3c(c2)OC(C)(C)C3)n1 [Example 80, 4-Benzyloxy-2,2-dimethyl-2,3-dihydro-benzofuran-6-carboxylic acid (1-methyl-1H-pyrazol-3-yl)-amide] | 111 | 5900 | 176 |  |  |  |
| COCC1(C)Cc2c(Oc3ccc(S(C)(=O)=O)cc3)cc(C(=O)Nc3ccc(C)cn3)cc2O1 (centres unmarked) [Example 231, 4-(4-Methanesulfonyl-phenoxy)-2-methoxymethyl-2-methyl-2,3-dihydro-benzofuran-6-carboxylic acid (5-methyl-pyridin-2-yl)-amide] | 118 | 100 | 106 |  |  |  |
| CCNC(=O)c1ccc(Oc2cc(C(=O)Nc3cnn(C)n3)cc3c2CC(C)(C)O3)cn1 [Example 174, 5-[2,2-Dimethyl-6-(2-methyl-2H-[1,2,3]triazol-4-ylcarbamoyl)-2,3-dihydro-benzofuran-4-yloxy]-pyridine-2-carboxylic acid ethylamide] | 238 | 840 | 258 |  |  |  |
| COCc1nnc(NC(=O)c2cc(Oc3ccc(S(C)(=O)=O)cc3)c3c(c2)OC(C)(C)C3)s1 [Example 30, 4-(4-Methanesulfonyl-phenoxy)-2,2-dimethyl-2,3-dihydro-benzofuran-6-carboxylic acid(5-methoxymethyl-[1,3,4]thiadiazol-2-yl)-amide] | 144 | 4200 | 183 |  |  |  |
| COc1cnc(NC(=O)c2cc(Oc3ccc(S(C)(=O)=O)cc3)c3cc(C(=O)N(C)C)oc3c2)cn1 [Example 287, N6-(5-Methoxypyrazin-2-yl)-N2,N2-dimethyl-4-[4-(methylsulfonyl)phenoxy]-1-benzofuran-2,6-dicarboxamide] | 80.3 | 562 | 169 |  |  |  |
| CNC(=O)c1ncc(Oc2cc(C(=O)Nc3ccn(C)n3)cc3c2CC(C)(C)O3)cn1 [Example 171, 5-[2,2-Dimethyl-6-(1-methyl-1H-pyrazol-3-ylcarbamoyl)-2,3-dihydro-benzofuran-4-yloxy]-pyrimidine-2-carboxylic acid methylamide] | 171 | 3600 | 213 |  |  |  |
| Cn1ncc(NC(=O)c2cc(Oc3ccc(S(=O)(=O)C4CC4)cc3)c3c(c2)OC(C)(CO)C3)n1 (centres unmarked) [Example 246, 4-(4-Cyclopropanesulfonyl-phenoxy)-2-hydroxymethyl-2-methyl-2,3-dihydro-benzofuran-6-carboxylic acid (2-methyl-2H-[1,2,3]triazol-4-yl)-amide] | 222 | 160 | 261 |  |  |  |
| CC(C)CN1CCc2c(Oc3ccc(S(C)(=O)=O)cc3)cc(C(=O)Nc3ccn(C)n3)cc2C1=O [Example 389, 2-Isobutyl-N-(1-methyl-1H-pyrazol-3-yl)-5-[4-(methylsulfonyl)-phenoxy]-1-oxo-1,2,3,4-tetrahydroisoquinoline-7-carboxamide] |  |  |  |  |  | 32.9 |
| COc1ccnc(NC(=O)c2cc(Oc3ccc(S(C)(=O)=O)cc3)c3cc(C(=O)N(C)C)oc3c2)c1 [Example 289, N6-(4-Methoxypyridin-2-yl)-N2,N2-dimethyl-4-[4-(methylsulfonyl)phenoxy]-1-benzofuran-2,6-dicarboxamide] | 73.8 | 7800 | 133 |  |  |  |
| C[C@@H](CO)COc1cc(C(=O)Nc2ccn(C)n2)cc2c1CC(C)(C)O2 [Example 102, 4-((S)-3-Hydroxy-2-methyl-propoxy)-2,2-dimethyl-2,3-dihydro-benzofuran-6-carboxylic acid (1-methyl-1H-pyrazol-3-yl)-amide] | 92.6 | 8800 | 137 |  |  |  |
| Cn1ccc(NC(=O)c2cc(Oc3ccc(S(=O)(=O)N4CCC4)cc3)c3c(c2)OC(C)(C)C3)n1 [Example 125, 4-[4-(Azetidine-1-sulfonyl)-phenoxy]-2,2-dimethyl-2,3-dihydro-benzofuran-6-carboxylic acid (1-methyl-1H-pyrazol-3-yl)-amide] | 181 | 46 | 162 |  |  |  |
| CCOc1ccc(NC(=O)c2cc(Oc3ccc(S(C)(=O)=O)cc3)c3cc(C)oc3c2)nc1 [Example 270, N-(5-ethoxypyridin-2-yl)-2-methyl-4-(4-(methylsulfonyl)-phenoxy)benzofuran-6-carboxamide] | 98.2 | 7100 | 139 |  |  |  |
| Cc1cc2cc(C(=O)Nc3ccn(C)n3)cc(Oc3ccc(C(=O)N(C)C)cc3)c2s1 [Example 331, 7-{4-[(Dimethylamino)carbonyl]phenoxy}-2-methyl-N-(1-methyl-1H-pyrazol-3-yl)-1-benzothiophene-5-carboxamide] | 47.4 | 320 | 56 |  |  |  |
| COc1ccnc(NC(=O)c2cc(Oc3ccc(S(C)(=O)=O)cc3)c3cc(C)oc3c2)c1 [Example 259, N-(4-Methoxypyridin-2-yl)-2-methyl-4-(4-(methylsulfonyl)-phenoxy)-benzofuran-6-carboxamide] | 63.6 | 1000 | 60 |  |  |  |
| Cn1ccc(NC(=O)c2cc(Oc3cc(F)ccc3S(C)(=O)=O)c3c(c2)OC(C)(CO)C3)n1 (centres unmarked) [Example 235, 4-(5-Fluoro-2-methanesulfonyl-phenoxy)-2-hydroxymethyl-2-methyl-2,3-dihydro-benzofuran-6-carboxylic acid (1-methyl-1H-pyrazol-3-yl)-amide] | 69.2 | > 10000 |  |  |  |  |
| Cc1ccc(NC(=O)c2cc(Oc3ccc(S(=O)(=O)N4CCC4)cc3)c3c(c2)OC(C)(C)C3)nc1 [Example 124, 4-[4-(Azetidine-1-sulfonyl)-phenoxy]-2,2-dimethyl-2,3-dihydro-benzofuran-6-carboxylic acid (5-methyl-pyridin-2-yl)-amide] | 156 | 38 | 113 |  |  |  |
| COc1cnc(NC(=O)c2cc(Oc3ccc(S(C)(=O)=O)cc3)c3cc(C)oc3c2)cn1 [Example 263, N-(5-methoxypyrazin-2-yl)-2-methyl-4-(4-(methylsulfonyl)-phenoxy)-benzofuran-6-carboxamide] | 157 | 840 | 146 |  |  |  |
| Cn1ccc(NC(=O)c2cc(Oc3cc(F)c(C(=O)N4CCC4)c(F)c3)c3c(c2)OC(C(F)F)C3)n1 (centres unmarked) [Example 223, 4-[4-(Azetidine-1-carbonyl)-3,5-difluoro-phenoxy]-2-difluoromethyl-2,3-dihydro-benzofuran-6-carboxylic acid (1-methyl-1H-pyrazol-3-yl)-amide] | 112 | 680 | 127 |  |  |  |
